Measured values as given in patent US10220025B1, “Self-emulsifying formulation of CARP-1 functional mimetics” (Florida A&M University, priority 2016, dated 2019).

What was measured:
[1] = test system: H2461 malignant pleural mesothelioma (MPM) cells; test: MTT viability assay, MPM cells; assay type: cell-based, human; conditions: 20 μM; 24 h; FIG. 3A
Source text: (§1) The current inventors' previous studies have indicated cancer cell growth inhibitory properties of CFMs in particular CFM-4 and CFM-5 [Puliyappadamba et al.]. […] J. Biomed. Nanotechnol. 2015; 11:1608-1627]. […] J. Biomed. Nanotechnol. 2015; 11:1608-1627]. On the basis of these findings, it was speculated that solubility and/or potency of the CFM-4 scaffold could be improved for its utility as a novel anti-TNBC molecule. To address this possibility, twelve (12) additional analogs of CFM-4 (Table 2) were synthesized using medicinal chemistry based structure activity relationship (SAR) studies. Each of the analog was suspended in DMSO, and their potency was evaluated in cell culture studies utilizing HeLa cervical cancer, MDA-MB-468 TNBC, and H2461 malignant pleural mesothelioma (MPM) cells by MTT based assays. […] Moreover, a 10 μM dose of CFM-4 inhibited MDA-MB-231 and MDA-MB-468 viabilities by ˜30% and 45%, respectively.

[2] = test system: HeLa cervical cancer cells; test: MTT viability assay, HeLa; assay type: cell-based; conditions: 20 μM; 24 h; FIG. 3A
Source text: as §1

[3] = test system: drug-resistant TNBC cells; test: MTT viability assay, drug-resistant TNBC sublines (not singled out); assay type: cell-based; conditions: 12 h; FIGS. 4A-4E
Procedure: (§2) Human TNBC MDA-MB-468 and MDA-MB-231, and mouse TNBC 4T1 cells were cultured in the chronic presence (>10 months) of Doxorubicin. The parental, wild-type cells were initially treated with 200 nM Doxorubicin for 2-3 weeks, followed by escalation to 400 nM, 1 μM, and 2 μM doses over a period of 3-4 weeks for each dose till resistance developed and the cells became well adapted to growth in […] of Doxorubicin for their routine culture. In the case of Cisplatin however, the human TNBC MDA-MB-468 and MDA-MB-231 were initially cultured in continuous presence of 1 μM Cisplatin for 3-4 weeks, and the dose was escalated to 1.5 μM and 3 μM over periods of 3-4 weeks for each dose till resistance developed and cells became adapted to routine culture in 3 μM dose. Subsequent, routine maintenance of the resistant cells in the presence of the respective drug was continued and multiple, resistant sublines for each of the TNBC cells were isolated and characterized for their growth inhibitory (GI)50 dose of respective therapeutic by the MTT-based viability assays as below.

[4] = maximal tolerated dose determination; assay type: in vivo
Source text: J. Biomed. Nanotechnol. 2015; 11:1608-1627]. […] Results was expressed as percentage.

MDA-MB-231 TNBC cells = conditions: 470 mg/kg, Qd 1-19, iv, DMSO plus cremophor; not shown
[5] = test system: parental and drug-resistant TNBC and SKBR-3 cells; test: scratch/wound healing cell migration assay; assay type: cell-based; conditions: FIGS. 11B, 11C, 12A, 12B, 13A, 13B
Procedure: The TNBC cells migration in the absence or presence of CFMs was measured by the “scratch/wound healing” assay. Cells were seeded in a 6-well plate (˜10,000 cells/well), and when attached, a scratch was created in the cell monolayer using sterile pipette tip. The cells were then allowed to continue growing in the absence (Control) or presence of noted dose of each of the agents for indicated time periods. The cells were photographed at the beginning and at regular intervals during the treatment period, and the images from control cells were compared with the treated cells to determine the migration of the cells essentially as described before [Liang C C, Park A Y, Guan J L In vitro scratch assay: a convenient and inexpensive method for analysis of cell migration in vitro. Nat Protoc. 2007; 2:329-33]. The photomicrographs of the cells were recorded under different magnifications utilizing Zeiss microscope with attached 35 mm camera.

[6] = pharmacokinetic study of CFM-4.16 NLF and free drug (Study 2); assay type: in vivo, Sprague Dawley Rats; conditions: rats; 40 mg/kg orally
Procedure: J. Biomed. Nanotechnol. 2015; 11:1608-1627]. Briefly, rats were fasted overnight prior to the start of experiments and randomly divided into three experimental groups receiving CFM-4.16 FD and CFM-4.16 NLF at 40 mg/kg orally and CFM-4.16 solution (CFM-4.16 sol) at 5 mg/kg by intravenous route. After the drug administration, blood samples (250 μl) were withdrawn from tail veins at 0, 0.25, 0.5, 1, 2, 4, 6, 8, 12 and 24 h, and collected directly into heparinized microvet blood collection tubes and plasma was obtained by centrifugation at 10,000 rpm for 10 min. The plasma samples were stored at −80° C. until needed for analysis. CFM-4.16 was extracted from the plasma by protein precipitation method and extracted samples were dissolved in mobile phase and samples were analyzed by HPLC. Oral bioavailability of CFM-4.16 FD and CFM-4.16 NLF along with their pharmacokinetic parameters such as area under curve (AUC), Cmax, t½, and tmax were estimated using non-compartmental techniques with WinNonlin® 5.0 software (Pharsight Corporation, Mountain View, Calif., USA).

[7] = test system: CARP-1, cyclin B1, cleaved PARP, caspase-8, p38, MKK4, JNK1/2 in TNBC cells; test: Western blot, apoptosis and SAPK signaling; assay type: cell-based
Procedure: For protein expression analysis, Western blot (WB) experiments were performed according to the standard procedures. The cells were either untreated or treated with various agents either alone or in combinations as indicated. Following treatment durations, the cells were lysed in cell lysis (10×) buffer (#9803; cell signaling) containing 0.1% of protease and phosphatase inhibitor cocktail (Sigma) for 20 min at 4° C. The lysates were centrifuged at 14,000 rpm at 4° C. for 15-20 min to remove debris. Protein concentrations of whole cell lysates were determined using the Protein Assay Kit. Supernatant proteins, 50-100 μg from each sample, were separated by SDS-polyacrylamide gel electrophoresis (SDS-PAGE) and transferred to polyvinylidene difluoride (PVDF) membrane (Bio-rad, Hercules, Calif.) by standard procedures. […] The antibody-bound proteins were visualized by treatment with the chemiluminescence detection reagent according to manufacturer's instructions, followed by exposure to X-ray film (Denville Scientific Inc.). The same membranes were re-probed with the anti-β-actin or anti-α-tubulin antibody, which was used as an internal control for protein loading.

[8] = test system: Adriamycin-resistant (ADR-R) MDA-MB-468 sublines; test: MTT viability assay, ADR-resistant MDA-MB-468 sublines; assay type: cell-based, human; conditions: ADR-resistant MDA-MB-468 subline 1; FIG. 5E
Procedure: as §2

HUVECs = test: in vitro tubule formation (angiogenesis) assay; assay type: cell-based, human; conditions: 12 hours; FIG. 11A
Procedure: The growth of tubules was monitored over a period of 12 hours. The cells growth in the scratch assay was recorded by photography. Representative photomicrographs of control and treated cells are presented.
It was next investigated whether CFM-4.16 inhibited TNBC cell migration and growth as colonies in soft agar and 3-dimensional cultures in vitro. In addition, an in vitro tubule formation assay was conducted to determine anti-angiogenic properties of CFM-4.16. […] Moreover, treatments with CFM-4 or CFM-4.16 prevented the parental as well as drug (ADR- or cisplatin-) resistant TNBC sublines and the parental and Herceptin-resistant, Her-2-positive SKBR-3 cells from growing in the areas of wound caused by a scratch (FIGS. 11B, 11C, 12A, 12B, 13A, and 13B).

## O=C1N(Cc2ccccc2Cl)c2ccccc2C12NN=C(c1cccc(Cl)c1)S2 (centres unmarked) [CFM-4.16]
[1]
  loss of viability compared with CFM-4: greater loss of viability
[2]
  inhibition of viability compared with CFM-4: greater inhibition of viability
[3]
  growth of ADR or Cisplatin-resistant TNBC sublines: effectively inhibited growth
[4]; daily iv 24-32 mg/kg days 1-16, total dose 482 mg/kg, by day 7 (recovery by day 18)
  weight loss: 1.6 % body weight
[4]; daily iv, total dose 482 mg/kg
  clinical signs: mild ataxia with some tail and leg twitching resolving within 1-2 minutes
  histology: No other histological abnormalities
MDA-MB-231 TNBC cells
  tumor growth inhibition (T/C): failed to yield a therapeutic T/C values
[5]
  growth of cells in the areas of wound caused by a scratch: prevented
[6]
  AUC: 21070 ± 4200 ng·h/mL
  plasma Cmax concentration: 1190 ± 35 ng/mL
[7]; FIGS. 5A-5C, 6A-6D
  apoptosis and SAPK markers in parental and drug-resistant TNBC cells: activated pro-apoptotic SAPKs p38α/β and JNK1/2, caspase-8, while causing cleavage of PARP and decline in mitotic cyclin B1 levels
[7]; parental and resistant TNBC cells, FIG. 5C
  activation of pro-apoptotic SAPKs in comparison with CFM-4: rather robust activation of both the pro-apoptotic SAPKs
[8]
  effect of siRNA-mediated depletion of CARP-1 on growth inhibition by the compound: interfered with growth inhibition
HUVECs
  tubule formation by HUVECs compared with untreated control: rather robust disruption in tubule integrity
